From PubChem BioAssay (NCI) come the findings set out here.

Holding throughout (test): NCI anticancer screen, dose series, 48 h
Assay [1] deals with A549 NSCLC.
The test system of assay [2] is CCRF-CEM leukemia.
Assay [3] has as its system HCC-2998 colon.
Assay [4] deals with HCT-15 colon.
For assay [5], the system named is IGROV1 ovarian.
In assay [6] the test system is LOX IMVI melanoma.
Assay [7] has as its system NCI-H23 lung.
The subject of assay [8] is NCI-H522 lung.
The test system of assay [9] is SK-MEL-2 melanoma.
Assay [10] deals with SW-620 colon.

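Dose response: 5 concentrations. Exposure: 48 h. Format: 96-well plates. Endpoint: linear interpolation; highest concentration if not reached. Here, GI50 denotes the concentration required for 50% inhibition of growth. TGI marks complete inhibition of growth.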

Consider `NC(CO)Cc1cnc[nH]1` (centres undefined), for which the GI50 in assay [1], in assay [2], in assay [3], in assay [4], in assay [5] and in assay [6] was more than 100 µM throughout. Moreover, the GI50 in [7], in assay [9] and in assay [10] was more than 100 µM throughout. The TGI in assay [1], in [2], in assay [3], in assay [4], in assay [5] and in assay [6] was more than 100 µM throughout. For the same molecule, the TGI in assay [7], in assay [8], in assay [9] and in [10] was more than 100 µM each time.

On to `COc1ccc(C(=O)Nc2ncc(Cc3ccc(Cl)cc3)s2)cc1`, for which the GI50 in assay [1] is 0.0733 µM; in [2], 0.046 µM; in assay [3] it was 0.166 µM; in assay [4] it was 0.044 µM; in assay [5], 0.0825 µM; in assay [6], 0.0628 µM. The GI50 in [7] was 0.239 µM; in [8], 0.0573 µM; in [9], 0.532 µM; in assay [10] it was 0.0455 µM. Moreover, the TGI is more than 100 µM in [1]; more than 100 µM in assay [2]; 12.7 µM in assay [3]; more than 100 µM in assay [4]; more than 100 µM in assay [5]; more than 100 µM in [6]. For the same molecule, the TGI in assay [7] was more than 100 µM; in assay [8], more than 37.8 µM; in [9], more than 100 µM; in assay [10], more than 100 µM.

For the molecule `Cc1ccc2c(C(C[N+](=O)[O-])c3cccs3)c(-c3ccccc3)[nH]c2c1` (centres undefined), the GI50 in assay [1] was 2.73 µM; in [2], 1.38 µM; in assay [3], 3.61 µM; in [4], 1.44 µM; in [5] it was 1.12 µM; in assay [6], 1.78 µM. For the same molecule, the GI50 is 1.88 µM in assay [7], 1.23 µM in assay [8], 2.24 µM in assay [9] and 1.39 µM in assay [10]. Further, the TGI in [1] is 15.1 µM; in assay [2], more than 33.3 µM; in [3], 8.01 µM; in assay [4], 7.46 µM; in assay [5], 5.81 µM; in assay [6], 6.05 µM. Moreover, the TGI in assay [7] came out at 8.18 µM; in assay [8], 8.03 µM; in assay [9], 10.5 µM; in [10], 8.12 µM.

On to `N#Cc1c(NC(=O)c2cccc(C(F)(F)F)c2)sc2c1CCC(=O)C2`, for which the GI50 in assay [1] is 1.88 µM; in assay [2], 0.262 µM; in assay [3] it was 1.61 µM; in assay [4], 0.337 µM; in assay [5], 0.582 µM; in [6], 0.369 µM. Further, the GI50 was 0.379 µM in [7], 0.315 µM in assay [8], 2.3 µM in [9] and 0.3 µM in [10]. Moreover, the TGI in assay [1] is 6.03 µM; in assay [2] it was more than 100 µM; in [3], 3.37 µM; in assay [4], 1.66 µM; in assay [5], 2.09 µM; in assay [6], 1.68 µM. For the same molecule, the TGI stood at 2.88 µM in assay [7], 1.65 µM in [8], 6.35 µM in [9] and 1.83 µM in assay [10].

As for `Fc1cccc(COc2ccc(Nc3ncncc3C#Cc3ccccc3)cc2Cl)c1`, the GI50 was more than 25 µM in assay [1]; more than 25 µM in assay [2]; more than 25 µM in assay [3]; more than 25 µM in assay [4]; more than 24 µM in assay [5]; more than 25 µM in assay [6]. Also, the GI50 in [7] was more than 25 µM; in [8], more than 22.4 µM; in assay [9] it was more than 25 µM; in [10], more than 25 µM. Further, the TGI in [1], in assay [2], in assay [3], in assay [4], in [5] and in [6] was more than 25 µM throughout. The TGI in assay [7], in assay [8], in assay [9] and in assay [10] was more than 25 µM each time.

With `CC(C)(C)c1cc(O)c(O)c(C(C)(C)C)c1`, the GI50 was 3.49 µM in assay [1]; 2.33 µM in assay [2]; 4.44 µM in assay [3]; 3.38 µM in [4]; 2.56 µM in assay [5]; 3.05 µM in [6]. Further, the GI50 in assay [7] was 3.64 µM; in assay [8] it was 1.77 µM; in assay [9], 3.74 µM; in assay [10] it was 1.8 µM. Moreover, the TGI was 12.2 µM in assay [1]; 7.49 µM in assay [2]; 16.6 µM in assay [3]; 11.2 µM in assay [4]; 5.27 µM in assay [5]; 12.9 µM in assay [6]. In addition, the TGI in assay [7] came out at 14.2 µM; in [8] it was 3.29 µM; in assay [9], 11.4 µM; in assay [10], 3.23 µM.

Consider `COc1cc2c(c3c1C=CCO3)C(=O)c1ccccc1C2=O`, for which the TGI in [1] is more than 100 µM; in assay [2], 66.4 µM; in assay [3], more than 100 µM; in [4] it was more than 100 µM; in assay [5], 78.5 µM; in assay [6], 78.6 µM. For the same molecule, the TGI in [7] is more than 100 µM; in [8] it was more than 100 µM; in [9], more than 100 µM; in assay [10] it was 97.9 µM.

Take `Cc1cc([C@@H](C)Nc2ccccc2C(=O)O)c2nc(N3CCOCC3)cc(=O)n2c1`: the GI50 was more than 10 µM in assay [1]; more than 10 µM in [2]; more than 10 µM in [3]; more than 10 µM in assay [4]; 1.85 µM in assay [5]; 6.73 µM in assay [6]. Besides, the GI50 in assay [7], in [8], in assay [9] and in assay [10] was more than 10 µM each time. The TGI in assay [1], in assay [2], in assay [3], in assay [4], in assay [5] and in assay [6] was more than 10 µM each time. Moreover, the TGI in assay [7], in assay [8], in assay [9] and in assay [10] was more than 10 µM each time.
